Converted amounts (≈) assume the structure as drawn. Read-outs that look alike come from different tables or passages of the source.
What was measured:
[1] = tested on: Pseudomonas aeruginosa (NCTC 7244); assay: Minimum bactericidal concentration (Referential Example 2, Table 2); type: cell-based; conditions: NCTC7244, 18 h, subculture on HIA medium
Experimental: (§1) The compounds obtained in Synthesis Examples 1 to 4 were tested in the following manner.
(§2) A suspension of Pseudomonas aeruginosa (NCTC 7244) cultivated at 37° C. for 18 hours in a heart infusion broth medium (HIB medium) in a final amount of 10^5, 10^6 and 10^7 cells/ml in an HIB medium containing each of the test compounds which was obtained in the same way as in Referential Example 1 except that the maximum concentration of the test compound was 200 μg/ml. The bacterial strain was cultivated at 37° C. for 18 hours, and the turbidity of the culture broth was evaluated with the naked eye. The minimum concentration of the test compound at which no turbidity was noted was defined as MIC.
The growth of the bacterial strain was evaluated.

[2] = tested on: Pseudomonas aeruginosa (395); assay: MIC, agar plate dilution (Referential Example 1, Table 1); type: cell-based; conditions: read-out: Minimum growth inhibitory concentration (MIC)
Experimental: (§3) The antibacterial activities of the cephalosporins of this invention were measured using the sodium salts of the compounds obtained in Synthesis Examples 1 and 2. The procedure and the results are shown in Referential Example 1.
(§4) Carbenicillin sodium salt (CB-PC) and cephazoline sodum salt (CEZ) were used as controls.
(§5) The antibacterial activities of the test compounds against various Gram-positive and Gram-negative bacteria were determined in a customary manner by the minimum growth inhibitory concentration method (MIC method).
(§6) The experimental procedure was as follows:
(§7) A commercially available heart infusion agar medium (to be abbreviated HIA medium) was used as an assay medium, and a commercially available trypto-soy bouillon medium (to be abbreviated TSB) was used as a medium for the growth of test bacterial strains.
(§8) The test compound was diluted with the melted HIA medium to 100 μg/ml as a maximum concentration, and then serially diluted double. The dilutions were poured into sterilized Petri dishes respectively and allowed to cool and solidify to prepare plates containing the test compound.
(§9) The test bacterial strain was cultivated at 37° C. for 18 to 24 hours in the TSB medium. The culture broth was diluted to 50 to 500 times with a freshly prepared TSB culture medium, and one platinum loopful of the dilution was inoculated in each of the plates containing the test compound.

[3] = tested on: Pseudomonas maltophilia (F-6257); assay: as above; type: cell-based; conditions: Stenotrophomonas maltophilia; HIA medium plate, 37° C., 18 hours; read-out: Minimum growth inhibitory concentration (MIC)
Experimental: as §3, §4, §5, §6, §7, §8, §9

[4] = tested on: Proteus rettgeri (T-2); assay: as above; type: cell-based; conditions: Providencia rettgeri; HIA medium plate, 37° C., 18 hours; read-out: Minimum growth inhibitory concentration (MIC)
Experimental: as §3, §4, §5, §6, §7, §8, §9

[5] = tested on: Pseudomonas aeruginosa (ATCC 10145); assay: as above; type: cell-based; conditions: ATCC10145, HIA medium plate, 37° C., 18 hours, read-out: Minimum growth inhibitory concentration (MIC)
Experimental: as §3, §4, §5, §6, §7, §8, §9

[6] = tested on: Shigella flexneri (K-A); assay: as above; type: cell-based; conditions: HIA medium plate, 37° C., 18 hours, read-out: Minimum growth inhibitory concentration (MIC)
Experimental: as §3, §4, §5, §6, §7, §8, §9

[7] = tested on: Pseudomonas aeruginosa (IFO-3901); assay: as above; type: cell-based; conditions: IFO3901, HIA medium plate, 37° C., 18 hours, read-out: Minimum growth inhibitory concentration (MIC)
Experimental: as §3, §4, §5, §6, §7, §8, §9

[8] = tested on: Pseudomonas aeruginosa (718); assay: as above; type: cell-based; conditions: HIA medium plate, 37° C., 18 hours, read-out: Minimum growth inhibitory concentration (MIC)
Experimental: as §3, §4, §5, §6, §7, §8, §9

[9] = tested on: Escherichia coli (26RO3); assay: as above; type: cell-based; conditions: HIA medium plate, 37° C., 18 hours, read-out: Minimum growth inhibitory concentration (MIC)
Experimental: as §3, §4, §5, §6, §7, §8, §9

[10] = tested on: Escherichia coli (NIHJ); assay: as above; type: cell-based; conditions: 18 h, read-out: Minimum growth inhibitory concentration (MIC)
Experimental: as §3, §4, §5, §6, §7, §8, §9

[11] = tested on: Staphylococcus aureus (Y-8); assay: as above; type: cell-based; conditions: HIA medium plate, 37° C., 18 hours, read-out: Minimum growth inhibitory concentration (MIC)
Experimental: as §3, §4, §5, §6, §7, §8, §9

[12] = tested on: Proteus morganii (C-39); assay: as above; type: cell-based; conditions: Morganella morganii; HIA medium plate, 37° C., 18 hours; read-out: Minimum growth inhibitory concentration (MIC)
Experimental: as §3, §4, §5, §6, §7, §8, §9

[13] = tested on: Streptococcus faecalis (Hoshi); assay: as above; type: cell-based; conditions: Enterococcus faecalis; HIA medium plate, 37° C., 18 hours; read-out: Minimum growth inhibitory concentration (MIC)
Experimental: as §3, §4, §5, §6, §7, §8, §9

[14] = tested on: Klebsiella pneumonia (F-5089); assay: as above; type: cell-based; conditions: Klebsiella pneumoniae; HIA medium plate, 37° C., 18 hours; read-out: Minimum growth inhibitory concentration (MIC)
Experimental: as §3, §4, §5, §6, §7, §8, §9

[15] = tested on: Serratia marcescens (S-33); assay: as above; type: cell-based; conditions: HIA medium plate, 37° C., 18 hours, read-out: Minimum growth inhibitory concentration (MIC)
Experimental: as §3, §4, §5, §6, §7, §8, §9

[16] = tested on: Proteus vulgaris (OX-19); assay: as above; type: cell-based; conditions: 18 h, read-out: Minimum growth inhibitory concentration (MIC)
Experimental: as §3, §4, §5, §6, §7, §8, §9

[17] = tested on: Enterobacter aerogenes (IFO 3320); assay: as above; type: cell-based; conditions: Klebsiella aerogenes, IFO3320, 18 h, read-out: Minimum growth inhibitory concentration (MIC)
Experimental: as §3, §4, §5, §6, §7, §8, §9

[18] = tested on: Pseudomonas aeruginosa (NCTC 7244); assay: as above; type: cell-based; conditions: NCTC7244, HIA medium plate, 37° C., 18 hours, read-out: Minimum growth inhibitory concentration (MIC)
Experimental: as §3, §4, §5, §6, §7, §8, §9

[19] = tested on: Pseudomonas aeruginosa (F1629); assay: as above; type: cell-based; conditions: HIA medium plate, 37° C., 18 hours, read-out: Minimum growth inhibitory concentration (MIC)
Experimental: as §3, §4, §5, §6, §7, §8, §9

[20] = tested on: Bacillus cereus (IAM 1792); assay: as above; type: cell-based; conditions: IAM1792, HIA medium plate, 37° C., 18 hours, read-out: Minimum growth inhibitory concentration (MIC)
Experimental: as §3, §4, §5, §6, §7, §8, §9

[21] = Blood level in rats after intramuscular administration (Experimental Example 1, Table 3); type: in vivo; conditions: rat, im, 20 mg/kg i.m., serum, read-out: Blood level after administration (average value ± standard deviation); for concentration at 0.25 h: 15 minutes; for concentration at 0.5 h: 30 minutes; for concentration at 1 h: 60 minutes; for concentration at 2 h: 120 minutes
Experimental: The compounds of this invention prepared in Synthesis Examples 1 and 2 were each administered intramuscularly to rats, and the concentrations of the compounds in the blood were determined.
Each of the test compounds was intramuscularly injected into the femoral part of rats in a customary manner in a dose of 20 mg/kg for each rat. The blood was drawn by incising the cervical artery and vein at the end of 15 minutes, 30 minutes, 60 minutes, 120 minutes, and 240 minutes after the injection. The separated sera were used for the measurement of the blood level of the test compounds. The concentrations of the test compounds in the sera were determined by a thin-layer cup method using Micrococcus luteus ATCC 9341 as an assay microorganism.

[22] = tested on: Pseudomonas aeruginosa (NCTC 7244); assay: MIC in HIB medium by turbidity (Referential Example 2, Table 2); type: cell-based; conditions: NCTC7244, 18 h, 37° C.
Experimental: as §1, §2

| SMILES | MBC ([1]; 10^5 cells/ml inoculated) [µg/mL] | MBC ([1]; 10^6 cells/ml inoculated) [µg/mL] | MBC ([1]; 10^7 cells/ml inoculated) [µg/mL] | MIC [3] [µg/mL] | MIC [4] [µg/mL] | MIC [5] [µg/mL] | MIC [6] [µg/mL] | MIC [7] [µg/mL] | MIC [8] [µg/mL] | MIC [9] [µg/mL] | MIC [10] [µg/mL] | MIC [11] [µg/mL] | MIC [12] [µg/mL] | MIC [13] [µg/mL] | MIC [14] [µg/mL] | MIC [15] [µg/mL] | MIC [16] [µg/mL] | MIC [17] [µg/mL] | MIC [18] [µg/mL] | MIC [19] [µg/mL] | other results |
| --- | --- | --- | --- | --- | --- | --- | --- | --- | --- | --- | --- | --- | --- | --- | --- | --- | --- | --- | --- | --- | --- |
| Cc1nnc(SCC2=C(C(=O)O)N3C(=O)C(NC(=O)[C@H](NC(=O)c4cnc5c(c4O)C(=O)CCC5)c4ccc(O)cc4)C3SC2)s1 (single isomer, unassigned) [Synthesis Example 2] | 12.5 (≈ 18.3 µM) | 12.5 (≈ 18.3 µM) | > 200 | 3.13 (≈ 4.58 µM) | 1.56 (≈ 2.28 µM) | 12.5 (≈ 18.3 µM) | 0.2 (≈ 0.293 µM) | 6.25 (≈ 9.15 µM) | 12.5 (≈ 18.3 µM) | 1.56 (≈ 2.28 µM) | 0.78 (≈ 1.14 µM) | 3.13 (≈ 4.58 µM) | 6.25 (≈ 9.15 µM) | 12.5 (≈ 18.3 µM) | 1.56 (≈ 2.28 µM) | 12.5 (≈ 18.3 µM) | 0.78 (≈ 1.14 µM) | 0.39 (≈ 0.571 µM) | 12.5 (≈ 18.3 µM) | 6.25 (≈ 9.15 µM) | MIC ([2]; HIA medium plate, 37° C., 18 hours): 3.13 µg/mL (≈ 4.58 µM); MIC [20]: 12.5 µg/mL (≈ 18.3 µM); concentration at 0.25 h [21]: 22800 ± 2600 ng/mL; concentration at 0.5 h [21]: 16100 ± 3000 ng/mL; concentration at 1 h [21]: 7600 ± 1800 ng/mL; concentration at 2 h [21]: 2500 ± 1200 ng/mL; MIC ([22]; 10^5 cells/ml inoculated): 12.5 µg/mL (≈ 18.3 µM); MIC ([22]; 10^6 cells/ml inoculated): 12.5 µg/mL (≈ 18.3 µM); MIC ([22]; 10^7 cells/ml inoculated): > 200 µg/mL |
| CC(=O)OCC1=C(C(=O)O)N2C(=O)C(NC(=O)[C@H](NC(=O)c3cnc4c(c3O)C(=O)CCC4)c3ccc(O)cc3)C2SC1 (single isomer, unassigned) [Synthesis Example 1, 7-[D-(-)-α-(4-hydroxy-5-oxo-5,6,7,8-tetrahydroquinoline-3-carboxamide)-α-(4-hydroxyphenyl)acetamido]-3-acetoxymethyl-Δ^3-cephem-4-carboxylic acid] | 12.5 (≈ 20.5 µM) | 25 (≈ 40.9 µM) | > 200 | 0.25 (≈ 0.409 µM) | 3.13 (≈ 5.13 µM) | 12.5 (≈ 20.5 µM) | 0.39 (≈ 0.639 µM) | 12.5 (≈ 20.5 µM) | 12.5 (≈ 20.5 µM) | 3.13 (≈ 5.13 µM) | 1.56 (≈ 2.55 µM) | 3.13 (≈ 5.13 µM) | 12.5 (≈ 20.5 µM) | 25 (≈ 40.9 µM) | 3.13 (≈ 5.13 µM) | 25 (≈ 40.9 µM) | 1.56 (≈ 2.55 µM) | 0.39 (≈ 0.639 µM) | 12.5 (≈ 20.5 µM) | 12.5 (≈ 20.5 µM) | MIC ([2]; 18 h): 1.56 µg/mL (≈ 2.55 µM); MIC [20]: 25 µg/mL (≈ 40.9 µM); concentration at 0.25 h [21]: 14000 ± 2200 ng/mL; concentration at 0.5 h [21]: 9800 ± 3100 ng/mL; concentration at 1 h [21]: 6800 ± 2200 ng/mL; concentration at 2 h [21]: 2200 ± 1000 ng/mL; MIC ([22]; 10^5 cells/ml inoculated): 12.5 µg/mL (≈ 20.5 µM); MIC ([22]; 10^6 cells/ml inoculated): 12.5 µg/mL (≈ 20.5 µM); MIC ([22]; 10^7 cells/ml inoculated): 25 µg/mL (≈ 40.9 µM) |
